Legend:
[1] = tested on: B. cereus; test: Disc test on agar medium; assay type: cell-based, Bacillus cereus; details: discs, gentamicin disc 10 µg
Experimental: (§1) Initially, the compounds were tested on an agar medium using commercial discs with gentamicin (10 µg) as a standard against B. cereus and P. aeruginosa used as model bacterial strains. As a result, no inhibition zones were observed around the discs with the compounds against both tested strains. With gentamicin, zones (mm in diameter) of 15 mm against B. cereus, and 12 mm against P. aeruginosa, were measured.
(§2) The antibacterial activity of the investigated compounds was tested against Gram-positive Bacillus cereus and Gram-negative Pseudomonas aeruginosa used as model strains (Collection of the Institute of Microbiology, Bulgarian Academy of Sciences). Microbial cultures were maintained at 4 °C on meat-peptone agar (MPA) slants and transferred monthly.

[2] = tested on: P. aeruginosa; test: Disc test on agar medium; assay type: cell-based, Pseudomonas aeruginosa; details: discs, gentamicin disc 10 µg
Experimental: as §1, §2

[3] = tested on: replication of HAdV-5 in HEp-2 cells; test: Antiviral activity assay, CPE inhibition; assay type: cell-based; details: Human adenovirus sp., HEp-2, read-out: IC50, antiviral activity on the replication of HAdV-5
Experimental: For checking the viral load, the antiviral screening based on the viral yield reduction technique was used. The cytopathic inhibition assay (CPE) utilizes 100 CCID50 loading in 0.1 mL of a monolayer of confluent cells in 96-well plates. After 1 h of virus adsorption, the extract was added in various concentrations, and cells were incubated for 48 h at 37 °C. The viable cells were stained according to the neutral red uptake procedure and the percentage of CPE inhibition for each concentration of the test sample was calculated using the following formula: % CPE = [ODtest sample − ODvirus control]/[ODtoxicity control − ODvirus control] × 100. The concentration of the material inhibition 50% of viral replication when compared to the virus control was defined as the 50% inhibitory concentration (IC50). The ratio CC50/IC50 was calculated to evaluate the selectivity index (SI).

| SMILES | inhibition zone (mm in diameter) [1] | inhibition zone (mm in diameter) [2] | IC50 [3] |
| --- | --- | --- | --- |
| CNC(C)C1CCC(N)C(OC2C(N)CC(N)C(OC3OCC(C)(O)C(NC)C3O)C2O)O1 (stereo not drawn) [gentamicin] | 15 mm | 12 mm | – |
| NC(=O)c1ncn([C@@H]2O[C@H](CO)[C@@H](O)[C@H]2O)n1 [Ribavirin] | – | – | 115 µM |
